Source: ChEMBL document CHEMBL5291721, “A preclinical secondary pharmacology resource illuminates target-adverse drug reaction associations of marketed drugs” (Nat Commun, 2023)

What was measured:
[1] = target: Beta-2 adrenergic receptor (Homo sapiens, UniProt P07550); format: functional, cell-based
Vasopressin V1a receptor = Vasopressin V1a receptor (Homo sapiens, UniProt P37288)
[2] = target: Voltage-dependent L-type calcium channel subunit alpha-1C (Rattus norvegicus, UniProt P22002); format: functional
Chain of Voltage-dependent L-type calcium channel subunit alpha-1C (P22002 whole entry): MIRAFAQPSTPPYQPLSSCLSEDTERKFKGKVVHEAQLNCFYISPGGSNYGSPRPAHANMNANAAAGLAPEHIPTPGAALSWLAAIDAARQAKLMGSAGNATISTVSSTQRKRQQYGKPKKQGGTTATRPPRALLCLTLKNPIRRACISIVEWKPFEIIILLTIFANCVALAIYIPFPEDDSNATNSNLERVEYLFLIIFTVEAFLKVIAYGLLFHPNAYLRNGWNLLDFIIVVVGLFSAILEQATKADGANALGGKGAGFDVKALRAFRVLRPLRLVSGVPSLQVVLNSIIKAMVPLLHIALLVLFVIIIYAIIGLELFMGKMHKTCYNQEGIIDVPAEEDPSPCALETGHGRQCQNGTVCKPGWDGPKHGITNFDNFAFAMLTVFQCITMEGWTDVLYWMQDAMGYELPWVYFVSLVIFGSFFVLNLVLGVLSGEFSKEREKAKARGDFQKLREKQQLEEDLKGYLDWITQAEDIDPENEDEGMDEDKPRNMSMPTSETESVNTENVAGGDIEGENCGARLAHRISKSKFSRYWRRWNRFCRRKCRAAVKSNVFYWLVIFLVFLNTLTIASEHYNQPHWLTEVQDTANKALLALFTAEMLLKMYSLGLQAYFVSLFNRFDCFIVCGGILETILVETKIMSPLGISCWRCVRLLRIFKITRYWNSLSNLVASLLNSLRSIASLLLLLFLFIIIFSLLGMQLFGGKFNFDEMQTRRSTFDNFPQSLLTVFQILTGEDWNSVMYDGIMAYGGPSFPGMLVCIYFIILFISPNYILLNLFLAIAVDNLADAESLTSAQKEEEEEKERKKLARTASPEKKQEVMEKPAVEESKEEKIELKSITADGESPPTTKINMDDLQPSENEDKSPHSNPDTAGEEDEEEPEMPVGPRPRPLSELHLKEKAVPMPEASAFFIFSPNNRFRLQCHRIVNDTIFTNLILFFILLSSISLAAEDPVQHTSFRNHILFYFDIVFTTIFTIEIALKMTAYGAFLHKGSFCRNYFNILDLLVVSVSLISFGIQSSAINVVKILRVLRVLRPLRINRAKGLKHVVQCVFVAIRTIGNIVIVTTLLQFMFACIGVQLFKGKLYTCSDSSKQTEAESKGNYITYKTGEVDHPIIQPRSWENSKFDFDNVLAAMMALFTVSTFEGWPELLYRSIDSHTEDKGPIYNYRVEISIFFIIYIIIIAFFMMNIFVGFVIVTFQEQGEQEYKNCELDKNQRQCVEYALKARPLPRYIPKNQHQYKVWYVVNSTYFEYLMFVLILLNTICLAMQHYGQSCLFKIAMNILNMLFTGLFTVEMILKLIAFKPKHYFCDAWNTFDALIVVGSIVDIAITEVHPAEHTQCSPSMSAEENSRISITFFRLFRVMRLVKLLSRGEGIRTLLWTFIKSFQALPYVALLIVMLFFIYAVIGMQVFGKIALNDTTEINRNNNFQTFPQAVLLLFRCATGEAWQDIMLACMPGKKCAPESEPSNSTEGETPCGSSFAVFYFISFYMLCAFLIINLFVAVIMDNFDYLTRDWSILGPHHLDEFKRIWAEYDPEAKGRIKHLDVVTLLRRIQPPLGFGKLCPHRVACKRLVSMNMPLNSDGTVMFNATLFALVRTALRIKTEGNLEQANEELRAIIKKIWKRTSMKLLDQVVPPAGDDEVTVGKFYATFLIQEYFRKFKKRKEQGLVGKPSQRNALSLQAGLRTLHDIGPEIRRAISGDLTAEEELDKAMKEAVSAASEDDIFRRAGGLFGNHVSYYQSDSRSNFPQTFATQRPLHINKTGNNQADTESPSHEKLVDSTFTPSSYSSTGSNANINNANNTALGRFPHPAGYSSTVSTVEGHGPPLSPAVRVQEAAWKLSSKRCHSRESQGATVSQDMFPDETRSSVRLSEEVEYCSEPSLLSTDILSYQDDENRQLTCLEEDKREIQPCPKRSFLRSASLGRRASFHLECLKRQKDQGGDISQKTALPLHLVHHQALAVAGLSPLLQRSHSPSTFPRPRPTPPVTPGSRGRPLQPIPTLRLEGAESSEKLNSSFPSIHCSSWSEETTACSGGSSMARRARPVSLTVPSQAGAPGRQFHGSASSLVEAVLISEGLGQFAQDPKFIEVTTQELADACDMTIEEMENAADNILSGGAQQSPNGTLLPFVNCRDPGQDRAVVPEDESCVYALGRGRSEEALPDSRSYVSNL

Cannabinoid receptor 1 [3] = target: T1, Cannabinoid receptor 1 (Homo sapiens, UniProt P21554); format: functional, cell-based
T1 sequence (P21554 whole entry): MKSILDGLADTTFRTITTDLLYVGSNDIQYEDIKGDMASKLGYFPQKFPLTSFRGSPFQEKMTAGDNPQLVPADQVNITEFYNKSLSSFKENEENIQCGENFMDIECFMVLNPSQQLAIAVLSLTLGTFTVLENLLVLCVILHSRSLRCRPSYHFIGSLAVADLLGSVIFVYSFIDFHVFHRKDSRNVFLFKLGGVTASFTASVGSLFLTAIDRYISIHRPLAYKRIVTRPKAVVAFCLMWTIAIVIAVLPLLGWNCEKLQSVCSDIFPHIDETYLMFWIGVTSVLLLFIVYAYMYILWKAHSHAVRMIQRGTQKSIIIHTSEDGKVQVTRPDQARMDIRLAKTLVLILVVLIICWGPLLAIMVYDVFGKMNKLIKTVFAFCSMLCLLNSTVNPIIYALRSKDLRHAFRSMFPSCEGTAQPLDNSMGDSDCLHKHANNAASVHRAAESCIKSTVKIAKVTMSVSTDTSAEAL

Cannabinoid receptor 1 [4] = target: T1, Cannabinoid receptor 1; format: functional, cell-based; remark: listed apart in the source
D(1A) dopamine receptor = D(1A) dopamine receptor (Homo sapiens, UniProt P21728); format: functional, cell-based
Chain of D(1A) dopamine receptor (P21728 whole entry): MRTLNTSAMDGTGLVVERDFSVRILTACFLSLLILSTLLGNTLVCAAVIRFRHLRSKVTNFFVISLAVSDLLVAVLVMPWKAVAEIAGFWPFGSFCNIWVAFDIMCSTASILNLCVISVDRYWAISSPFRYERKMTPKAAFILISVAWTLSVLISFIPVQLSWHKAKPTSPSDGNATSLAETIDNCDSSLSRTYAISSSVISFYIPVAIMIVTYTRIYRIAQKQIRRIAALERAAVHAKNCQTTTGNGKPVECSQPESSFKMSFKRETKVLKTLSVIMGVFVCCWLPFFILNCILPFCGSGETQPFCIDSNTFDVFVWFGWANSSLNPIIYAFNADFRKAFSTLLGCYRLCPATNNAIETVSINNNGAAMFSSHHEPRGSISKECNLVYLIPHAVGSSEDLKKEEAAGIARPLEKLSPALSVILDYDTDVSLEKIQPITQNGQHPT

Endothelin-1 receptor = target: T2, Endothelin-1 receptor (Homo sapiens, UniProt P25101)
T2 sequence (P25101 whole entry): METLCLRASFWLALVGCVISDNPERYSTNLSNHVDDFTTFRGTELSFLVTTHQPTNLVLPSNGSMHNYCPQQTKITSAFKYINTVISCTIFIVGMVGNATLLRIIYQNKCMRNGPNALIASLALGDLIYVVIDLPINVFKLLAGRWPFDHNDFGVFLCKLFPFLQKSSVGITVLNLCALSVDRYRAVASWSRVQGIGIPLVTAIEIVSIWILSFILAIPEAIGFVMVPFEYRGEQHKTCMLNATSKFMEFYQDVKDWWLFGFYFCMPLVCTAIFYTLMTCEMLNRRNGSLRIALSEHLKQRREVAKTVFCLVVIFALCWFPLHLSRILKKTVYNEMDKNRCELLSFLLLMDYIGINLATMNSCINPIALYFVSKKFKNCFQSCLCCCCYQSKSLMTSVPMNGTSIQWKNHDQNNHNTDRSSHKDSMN

Histamine H2 receptor = Histamine H2 receptor (Homo sapiens, UniProt P25021); format: functional, cell-based
Chain of Histamine H2 receptor (P25021 whole entry): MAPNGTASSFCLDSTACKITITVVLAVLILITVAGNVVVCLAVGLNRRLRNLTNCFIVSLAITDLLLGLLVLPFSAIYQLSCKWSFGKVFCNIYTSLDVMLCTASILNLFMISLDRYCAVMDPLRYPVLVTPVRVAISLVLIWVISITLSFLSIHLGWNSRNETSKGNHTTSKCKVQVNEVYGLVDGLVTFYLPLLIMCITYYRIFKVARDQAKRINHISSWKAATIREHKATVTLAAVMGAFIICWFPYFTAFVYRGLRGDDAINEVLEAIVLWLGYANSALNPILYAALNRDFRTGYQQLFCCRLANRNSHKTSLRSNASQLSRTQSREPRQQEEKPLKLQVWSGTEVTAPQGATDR

[5] = target: T3, 5-hydroxytryptamine receptor 1A (Homo sapiens, UniProt P08908); format: functional, cell-based
T3 sequence (P08908 whole entry): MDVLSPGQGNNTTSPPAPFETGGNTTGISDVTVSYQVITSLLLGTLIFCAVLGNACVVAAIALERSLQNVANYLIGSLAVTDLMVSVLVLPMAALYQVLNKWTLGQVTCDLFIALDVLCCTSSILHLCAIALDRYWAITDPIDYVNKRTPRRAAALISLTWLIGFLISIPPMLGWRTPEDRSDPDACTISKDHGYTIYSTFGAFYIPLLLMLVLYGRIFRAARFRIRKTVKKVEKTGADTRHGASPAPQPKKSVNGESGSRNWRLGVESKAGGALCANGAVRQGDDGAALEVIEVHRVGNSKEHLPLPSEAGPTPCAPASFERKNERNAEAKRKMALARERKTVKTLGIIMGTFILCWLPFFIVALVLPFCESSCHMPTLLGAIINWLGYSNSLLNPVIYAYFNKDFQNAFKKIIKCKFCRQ

[6] = target: T4, 5-hydroxytryptamine receptor 2A (Homo sapiens, UniProt P28223); format: functional, cell-based
[7] = target: T4, 5-hydroxytryptamine receptor 2A; format: functional, cell-based; remark: listed apart in the source
Glucocorticoid receptor = target: T5, Glucocorticoid receptor (Homo sapiens, UniProt P04150)
T5 sequence (P04150 whole entry): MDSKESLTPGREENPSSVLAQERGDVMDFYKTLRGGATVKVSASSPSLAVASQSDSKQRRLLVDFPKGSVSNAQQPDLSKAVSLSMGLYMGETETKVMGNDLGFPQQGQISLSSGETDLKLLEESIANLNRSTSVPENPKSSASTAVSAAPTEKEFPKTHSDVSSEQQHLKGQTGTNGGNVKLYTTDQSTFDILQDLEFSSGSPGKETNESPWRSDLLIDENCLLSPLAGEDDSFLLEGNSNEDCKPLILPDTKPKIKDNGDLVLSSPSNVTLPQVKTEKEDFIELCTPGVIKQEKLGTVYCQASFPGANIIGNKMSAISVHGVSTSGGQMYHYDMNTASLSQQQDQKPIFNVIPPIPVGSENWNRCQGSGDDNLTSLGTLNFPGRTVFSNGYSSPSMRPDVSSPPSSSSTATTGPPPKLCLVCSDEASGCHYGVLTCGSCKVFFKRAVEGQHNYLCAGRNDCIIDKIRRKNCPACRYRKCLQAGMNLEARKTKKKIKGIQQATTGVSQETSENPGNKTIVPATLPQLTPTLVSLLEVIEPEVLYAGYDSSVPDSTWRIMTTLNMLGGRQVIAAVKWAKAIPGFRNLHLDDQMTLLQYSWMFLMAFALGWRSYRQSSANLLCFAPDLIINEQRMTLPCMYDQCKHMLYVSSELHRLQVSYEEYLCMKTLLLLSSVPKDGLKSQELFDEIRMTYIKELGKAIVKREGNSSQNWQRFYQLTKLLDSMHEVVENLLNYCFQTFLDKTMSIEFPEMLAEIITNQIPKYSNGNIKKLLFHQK

[8] = target: T6, Alpha-1A adrenergic receptor (Homo sapiens, UniProt P35348); format: functional, cell-based
T6 sequence (P35348 whole entry): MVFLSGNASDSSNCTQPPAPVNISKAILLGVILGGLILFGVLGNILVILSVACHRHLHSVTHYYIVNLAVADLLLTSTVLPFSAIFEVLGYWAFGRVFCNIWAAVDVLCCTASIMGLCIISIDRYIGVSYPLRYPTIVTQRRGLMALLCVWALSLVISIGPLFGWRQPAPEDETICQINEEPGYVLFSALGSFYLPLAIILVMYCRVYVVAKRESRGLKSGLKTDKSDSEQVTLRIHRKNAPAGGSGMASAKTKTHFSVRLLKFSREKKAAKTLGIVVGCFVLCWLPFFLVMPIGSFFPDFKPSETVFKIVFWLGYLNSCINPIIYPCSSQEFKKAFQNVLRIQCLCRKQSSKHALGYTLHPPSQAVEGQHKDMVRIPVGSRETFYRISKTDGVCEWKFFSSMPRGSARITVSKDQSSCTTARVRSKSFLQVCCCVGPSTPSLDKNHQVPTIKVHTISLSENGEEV

Histamine H3 receptor = Histamine H3 receptor (Homo sapiens, UniProt Q9Y5N1)
Chain of Histamine H3 receptor (Q9Y5N1 whole entry): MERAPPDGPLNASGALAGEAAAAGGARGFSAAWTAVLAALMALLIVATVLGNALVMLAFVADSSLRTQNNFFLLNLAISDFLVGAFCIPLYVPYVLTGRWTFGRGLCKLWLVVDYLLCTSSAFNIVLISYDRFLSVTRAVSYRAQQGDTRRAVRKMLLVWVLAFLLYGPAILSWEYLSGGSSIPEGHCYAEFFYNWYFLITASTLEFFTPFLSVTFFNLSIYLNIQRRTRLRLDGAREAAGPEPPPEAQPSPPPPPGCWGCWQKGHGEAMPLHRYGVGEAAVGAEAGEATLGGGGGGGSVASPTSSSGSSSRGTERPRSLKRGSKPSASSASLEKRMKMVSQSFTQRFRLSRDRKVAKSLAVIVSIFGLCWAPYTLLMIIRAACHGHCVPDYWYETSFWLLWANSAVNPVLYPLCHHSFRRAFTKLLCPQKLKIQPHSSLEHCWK

[9] = target: T6, Alpha-1A adrenergic receptor
Cannabinoid receptor 1 [10] = target: T1, Cannabinoid receptor 1
Melanocortin receptor 4 = Melanocortin receptor 4 (Homo sapiens, UniProt P32245)
Mu-type opioid receptor = Mu-type opioid receptor (Homo sapiens, UniProt P35372)
Further: assay procedure not described here.

Chain of Vasopressin V1a receptor (P37288 whole entry): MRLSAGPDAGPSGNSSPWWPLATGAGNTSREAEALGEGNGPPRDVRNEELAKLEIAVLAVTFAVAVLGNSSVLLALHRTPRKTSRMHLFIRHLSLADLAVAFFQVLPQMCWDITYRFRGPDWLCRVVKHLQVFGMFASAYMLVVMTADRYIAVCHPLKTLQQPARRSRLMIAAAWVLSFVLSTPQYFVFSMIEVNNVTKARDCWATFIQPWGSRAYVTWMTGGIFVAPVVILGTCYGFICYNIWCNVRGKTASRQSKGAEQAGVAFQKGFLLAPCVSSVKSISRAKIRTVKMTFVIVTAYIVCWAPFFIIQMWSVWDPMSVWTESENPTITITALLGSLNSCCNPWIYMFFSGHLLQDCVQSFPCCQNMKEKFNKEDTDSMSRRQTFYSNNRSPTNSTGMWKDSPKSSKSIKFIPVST
Chain of Beta-2 adrenergic receptor (P07550 whole entry): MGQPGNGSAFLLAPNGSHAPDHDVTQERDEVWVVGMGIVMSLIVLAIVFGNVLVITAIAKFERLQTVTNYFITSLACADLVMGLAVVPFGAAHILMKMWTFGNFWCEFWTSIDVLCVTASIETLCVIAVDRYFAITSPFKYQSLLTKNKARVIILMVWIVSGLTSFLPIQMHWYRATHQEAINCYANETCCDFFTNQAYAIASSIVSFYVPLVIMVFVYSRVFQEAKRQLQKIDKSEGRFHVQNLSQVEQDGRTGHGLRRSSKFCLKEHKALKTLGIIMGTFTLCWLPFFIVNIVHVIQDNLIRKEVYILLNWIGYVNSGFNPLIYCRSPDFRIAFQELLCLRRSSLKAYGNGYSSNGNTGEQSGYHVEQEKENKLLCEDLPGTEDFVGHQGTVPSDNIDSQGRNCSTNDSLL

Structure (SMILES)	AC50 [1]	AC50 (Vasopressin V1a receptor)	AC50 [2]	AC50 (Cannabinoid receptor 1 [3])	AC50 (Cannabinoid receptor 1 [4])	AC50 (D(1A) dopamine receptor)	AC50 (Endothelin-1 receptor)	AC50 (Histamine H2 receptor)	AC50 [5]	AC50 [6]	AC50 [7]	AC50 (Glucocorticoid receptor)	AC50 [8]	AC50 (Histamine H3 receptor)	AC50 [9]	AC50 (Cannabinoid receptor 1 [10])	AC50 (Melanocortin receptor 4)	AC50 (Mu-type opioid receptor)
CCC(COC(=O)c1cc(OC)c(OC)c(OC)c1)(c1ccccc1)N(C)C (configuration not stated) [TRIMEBUTINE]	> 30 µM	> 30 µM	21 µM	> 30 µM	> 30 µM	> 30 µM	> 30 µM	> 30 µM	> 30 µM	> 30 µM	> 30 µM	> 30 µM	> 30 µM	> 30 µM	–	–	–	–
CCN(CC)C(=O)Nc1ccc(OCC(O)CNC(C)(C)C)c(C(C)=O)c1 (configuration not stated) [CELIPROLOL]	> 30 µM	> 30 µM	> 30 µM	> 30 µM	> 30 µM	> 30 µM	> 30 µM	> 30 µM	> 30 µM	> 30 µM	> 30 µM	> 30 µM	> 30 µM	> 30 µM	–	–	–	–
O=C1CN=C(c2ccccn2)c2cc(Br)ccc2N1 [BROMAZEPAM]	> 30 µM	> 10 µM	> 10 µM	> 30 µM	–	> 10 µM	–	> 10 µM	> 10 µM	> 10 µM	> 10 µM	> 10 µM	–	–	> 10 µM	> 10 µM	> 10 µM	> 30 µM
CCCCCC(=O)O[C@]1(C(C)=O)CC[C@H]2[C@@H]3CCC4=CC(=O)CC[C@]4(C)[C@H]3CC[C@@]21C [HYDROXYPROGESTERONE CAPROATE]	> 30 µM	> 30 µM	> 30 µM	> 30 µM	> 30 µM	> 30 µM	–	> 30 µM	–	> 30 µM	> 30 µM	0.007 µM	> 30 µM	> 30 µM	> 30 µM	> 30 µM	> 30 µM	–
